{"source": "paper PMC6862080", "about": "“Blood Compatibility—An Important but Often Forgotten Aspect of the Characterization of Antimicrobial Peptides for Clinical Application” (International Journal of Molecular Sciences, 2019)", "key": {"E. coli (ATCC 11303)": {"system": "E. coli (ATCC 11303)", "assay": "microbe, parasite or virus in culture", "format": "cell-based", "conditions": "for MIC: Escherichia coli"}, "S. aureus (ATCC 12600)": {"system": "S. aureus (ATCC 12600)", "assay": "microbe, parasite or virus in culture", "format": "cell-based", "conditions": "for MIC: Staphylococcus aureus"}, "[1]": {"system": "all species of Enterobacteriaceae and Staphylococcus", "conditions": "against all species of Enterobacteriaceae and Staphylococcus; cited from earlier work", "method": "It is noticeable that the MIC decreases with increasing acylation length of the peptide (Table 1). The antimicrobial effect of the LF11-322 peptides against E. coli and S. aureus decreased when the MIC was tested in 4% HSA solution. This is probably due to the partial binding of AMPs to albumin."}, "erythrocyte membranes [2]": {"system": "erythrocyte membranes", "assay": "Hemolysis in whole blood (Kahn method)", "format": "cell-based, human", "method": "(§1) Hemolysis was tested with fresh citrate anticoagulated blood from healthy volunteers as well as with blood cells which were suspended in phosphate buffered saline (10 mM pH 7.4). Afterwards, 100 μL AMP solution was added to 500 μL blood to finally achieve AMP concentrations of 8, 32, and 128 μg/mL. As the negative and positive control, 100 μL PBS buffer and 100 μL 12% Triton-X buffer was added to 500 μL blood, respectively. After incubation on an orbital shaker for 60 min at 37 °C, the cells were removed by centrifugation and 100 μL of the supernatant were transferred to a 96 well microplate for hemolysis measurement. The hemolysis was calculated from the extinction at the wavelengths 562, 578, and 598 nm with a Synergy 2 microplate reader (BioTek, Winooski, VT, USA) according to the method published by Kahn."}, "erythrocyte membranes [3]": {"system": "erythrocyte membranes", "assay": "Hemolysis in RBC suspended in PBS (Kahn method)", "format": "cell-based, human", "method": "as §1"}, "plasmatic coagulation [4]": {"system": "plasmatic coagulation", "assay": "Clotting batch test in citrate plasma", "format": "biochemical, human", "method": "Since the acylated LF11-322 peptides cause plasmatic coagulation of citrate anticoagulated plasma, separate clotting experiments were performed with this peptide group. The aim was to check whether the coagulation activation is dependent on the AMP concentration and on the acyl chain length. […] Plasma without additives served as the negative control, whereas plasma spiked with CaCl2/MgCl2 (500/250 mM) solution to restore the physiological calcium and magnesium level in plasma was used as the positive control. Incubation was performed at 37 °C for 60 min. […] In order to ensure that the measured turbidity of the plasma is caused by fibrin formation, the fibrinogen and D-Dimer concentrations were additionally determined. During plasmatic clotting, the fibrinogen level decreases and the D-Dimer level in serum increases. Both were analyzed on a Sysmex CA560 with the corresponding reagents (Siemens Healthineers, Erlangen, Germany)."}, "platelets [5]": {"system": "platelets", "assay": "Platelet activation, platelet count in citrate anticoagulated PRP", "format": "cell-based, human", "conditions": "128 μg/mL, 2 h, 37 °C, Sysmex analyzer, n = 3", "method": "(§2) Since it was observed that some AMPs are able to activate the plasmatic coagulation system of heparinized and citrate anticoagulated blood, the influence of this peptides on platelets was investigated. For this purpose, fresh heparinized and citrated blood were collected from three donors. The blood was centrifuged at 500 g for 5 min and platelet rich plasma (PRP) was obtained. The PRP was incubated at 37 °C for 2 h with 128 μg/mL AMP, PMB, and LL-37. PRP without any additives served as the control. After incubation, the platelet number was determined by a Sysmex Automated Hematology Analyzer KX-21-N (Kobe, Japan). In addition, the PRP samples were prepared for SEM to visualize the morphology of the thrombocytes. After incubation, 10 μL PRP were diluted with 990 μL PBS (0.01 M) and filtered through a 0.2 μm membrane (Membrane Filter Isopore 0.2 μm, Merck, Darmstadt, Germany). The platelets were retained on the membrane, washed with 1 mL PBS, and fixed with 1 mL glutaraldehyde solution (2.5% glutaraldehyde in physiological saline solution). After an incubation time of 60 min, the samples were dehydrated using a series of ethanol (30%, 50%, 60%, 70%, 80%, 90%, and 100%). Afterwards the samples were dried overnight at RT, sputtered with gold and visualized with a scanning electron microscope (FLEXSem 1000, Hitachi, Japan)."}, "platelets [6]": {"system": "platelets", "assay": "Platelet activation, platelet count in heparin anticoagulated PRP", "format": "cell-based, human", "conditions": "128 μg/mL, 2 h, 37 °C, Sysmex analyzer, n = 3", "method": "as §2"}, "platelets [7]": {"system": "platelets", "assay": "SEM imaging of platelet morphology in PRP", "format": "cell-based, human", "conditions": "128 μg/mL, 2 h, 37 °C", "method": "as §2"}, "human leukocytes": {"system": "human leukocytes", "assay": "Cytotoxicity on leukocytes in whole blood, flow cytometry (7-AAD)", "format": "cell-based", "conditions": "citrate anticoagulated whole blood, 128 μg/mL, 37 °C, 120 min / 60 min, CD45, flow cytometry, n = 3", "procedure": "The measurement of the membrane destabilization of leukocytes by AMPs was carried out by flow cytometry. […] Whole blood without AMPs or antibiotics was used as a control. After incubation, the proportion of apoptotic and dead cells was determined by flow cytometry. To achieve this, blood samples were diluted 1:100 with 0.01 M phosphate buffered saline and centrifuged at 300 g for 10 min. The supernatant was removed, and cells were stained with 10 μL CD45 pacific blue (leukocyte marker; Beckman coulter, Brea, CA) and 10 μL 7-AAD (a marker for dead cells; Sigma-Aldrich, Steinheim, Germany) for 15 min at room temperature in the dark. After incubation, 1.8 mL lysis buffer (1:10 dilution in distilled water) was added, mixed, and incubated for 10 min at room temperature in the dark. This was followed by two washing steps (2300 g, 5 min, room temperature) and the cells were resuspended in a final volume of 200 μL 0.01 M PBS for measurement. Flow cytometry was performed using a Gallios flow cytometer (Beckman Coulter, Brea, CA, USA) equipped with 405 nm, 488 nm, and 638 nm lasers and the Kaluza Analysis Software (Beckman Coulter, Brea, CA, USA), which was used for measurement and data analysis. Blood cells which were incubated in 70% methanol before staining served as the positive control and blood cells without any additives were used as the negative control."}, "plasmatic coagulation [8]": {"system": "plasmatic coagulation", "assay": "Activation of the clotting cascade in heparinized plasma", "conditions": "heparinized (0.5 IU/mL) plasma, 128 μg/mL, 37 °C, 120 min, turbidity at 600 nm", "method": "(§3) Plasma spiked with MES buffer without AMP was used as the negative control. […] Samples were incubated at 37 °C for 120 min. Coagulation was determined by turbidity measurement at 600 nm using a well plate reader."}, "plasmatic coagulation [9]": {"system": "plasmatic coagulation", "assay": "Activation of the clotting cascade in citrated plasma", "conditions": "citrated (17 mM) plasma, 128 μg/mL, 37 °C, 120 min, turbidity at 600 nm", "method": "as §3"}, "[10]": {"conditions": "citrate plasma, 37 °C, 60 min, turbidity 600 nm, fibrinogen and D-Dimer"}}, "note": "Read-outs that look alike come from different tables or passages of the source. Peptide text beside a SMILES is read from it. * marks the point of attachment. Myristoyl = CCCCCCCCCCCCCC(=O)*; on Clotting of citrate plasma, Peptide Concentration 128 μg/mL: key: −: no clotting observed, no D-dimers and normal fibrinogen level; +: clotting observed, high D-dimer level, no detectable fibrinogen serum level; on Clotting of citrate plasma, Peptide Concentration 256 μg/mL: key: −: no clotting observed, no D-dimers and normal fibrinogen level; +: clotting observed, high D-dimer level, no detectable fibrinogen serum level; on Clotting of citrate plasma, Peptide Concentration 32 μg/mL: key: −: no clotting observed, no D-dimers and normal fibrinogen level; +: clotting observed, high D-dimer level, no detectable fibrinogen serum level; on Clotting of citrate plasma, Peptide Concentration 8 μg/mL: key: −: no clotting observed, no D-dimers and normal fibrinogen level; +: clotting observed, high D-dimer level, no detectable fibrinogen serum level"}
{"smiles": "O=C(O)c1cn(C2CC2)c2cc(N3CCNCC3)c(F)cc2c1=O", "note": "[Ciprofloxacin, reference compound]", "values": [{"measurement": "MIC", "setting": "E. coli (ATCC 11303); ATCC11303, pH 7.4, read-out: Minimal Inhibitory Concentration, E. coli, PBS", "result": "< 0.0625", "unit": "µg/mL"}, {"measurement": "MIC", "setting": "E. coli (ATCC 11303); ATCC11303, read-out: Minimal Inhibitory Concentration, E. coli, PBS + heparin", "result": "< 0.0625", "unit": "µg/mL"}, {"measurement": "MIC", "setting": "S. aureus (ATCC 12600); ATCC12600, pH 7.4, read-out: Minimal Inhibitory Concentration, S. aureus, PBS", "result": "< 0.0625", "unit": "µg/mL"}, {"measurement": "MIC", "setting": "S. aureus (ATCC 12600); ATCC12600, read-out: Minimal Inhibitory Concentration, S. aureus, PBS + heparin", "result": "< 0.0625", "unit": "µg/mL"}, {"measurement": "MIC90", "setting": "[1]", "result": "< 1", "unit": "µg/mL"}]}
{"smiles": "CCCCCCCCCCCCCC(=O)N1CCC[C@H]1C(=O)N[C@@H](Cc1ccccc1)C(=O)N[C@@H](Cc1c[nH]c2ccccc12)C(=O)N[C@@H](CCCNC(=N)N)C(=O)N[C@H](C(=O)N[C@@H](CCCNC(=N)N)C(=O)N[C@H](C(=O)N[C@@H](CCCNC(=N)N)C(=O)N[C@@H](CCCNC(=N)N)C(N)=O)[C@@H](C)CC)[C@@H](C)CC", "note": "[LF11-322-C14] (Myristoyl-PFWRIRIRR-NH2)", "values": [{"measurement": "Minimal Inhibitory Concentration, E. coli, PBS", "setting": "E. coli (ATCC 11303); ATCC 11303, pH 7.4", "result": 64, "unit": "µg/mL"}, {"measurement": "Minimal Inhibitory Concentration, S. aureus, PBS", "setting": "S. aureus (ATCC 12600); ATCC 12600, pH 7.4", "result": 8, "unit": "µg/mL"}, {"measurement": "Free Hemoglobin, BLOOD, 8 μg/mL", "setting": "erythrocyte membranes [2]", "result": "2.9 ± 3.4", "unit": "mg/dL"}, {"measurement": "Free Hemoglobin, BLOOD, 32 μg/mL", "setting": "erythrocyte membranes [2]", "result": "5.4 ± 3.2", "unit": "mg/dL"}, {"measurement": "Free Hemoglobin, BLOOD, 128 μg/mL", "setting": "erythrocyte membranes [2]", "result": "2.9 ± 4.2", "unit": "mg/dL"}, {"measurement": "Free Hemoglobin, RBC in PBS, 8 μg/mL", "setting": "erythrocyte membranes [3]; pH 7.4", "result": "12.9 ± 1.2", "unit": "mg/dL"}, {"measurement": "Free Hemoglobin, RBC in PBS, 32 μg/mL", "setting": "erythrocyte membranes [3]; pH 7.4", "result": "31.8 ± 3.14", "unit": "mg/dL"}, {"measurement": "Peptide concentration that triggers clotting of citrate plasma", "setting": "plasmatic coagulation [4]", "result": "≥ 32", "unit": "µg/mL"}, {"measurement": "Platelet count in citrate anticoagulated PRP vs control (in words)", "setting": "platelets [5]", "result": "significantly reduce the platelet count"}, {"measurement": "Platelet count in heparinized PRP vs control (in words)", "setting": "platelets [6]", "result": "no significant difference in platelet count"}, {"measurement": "Platelet morphology by SEM, citrate anticoagulated PRP (in words)", "setting": "platelets [7]", "result": "hardly any intact platelets left"}, {"measurement": "Percentage of dead leukocytes", "setting": "human leukocytes", "result": "21 ± 16", "unit": "%"}]}
{"smiles": "CC[C@H](C)[C@H](NC(=O)[C@H](CCCCN)NC(=O)[C@H](CCC(=O)O)NC(=O)[C@H](CCCCN)NC(=O)[C@H](CO)NC(=O)[C@H](CCCCN)NC(=O)[C@H](CCCNC(=N)N)NC(=O)[C@H](Cc1ccccc1)NC(=O)[C@H](Cc1ccccc1)NC(=O)[C@H](CC(=O)O)NC(=O)CNC(=O)[C@H](CC(C)C)NC(=O)[C@@H](N)CC(C)C)C(=O)NCC(=O)N[C@@H](CCCCN)C(=O)N[C@@H](CCC(=O)O)C(=O)N[C@@H](Cc1ccccc1)C(=O)N[C@@H](CCCCN)C(=O)N[C@@H](CCCNC(=N)N)C(=O)N[C@H](C(=O)N[C@H](C(=O)N[C@@H](CCC(N)=O)C(=O)N[C@@H](CCCNC(=N)N)C(=O)N[C@H](C(=O)N[C@@H](CCCCN)C(=O)N[C@@H](CC(=O)O)C(=O)N[C@@H](Cc1ccccc1)C(=O)N[C@@H](CC(C)C)C(=O)N[C@@H](CCCNC(=N)N)C(=O)N[C@@H](CC(N)=O)C(=O)N[C@@H](CC(C)C)C(=O)N[C@H](C(=O)N1CCC[C@H]1C(=O)N[C@@H](CCCNC(=N)N)C(=O)N[C@H](C(=O)N[C@@H](CCC(=O)O)C(=O)N[C@@H](CO)C(=O)O)[C@@H](C)O)C(C)C)[C@@H](C)CC)C(C)C)[C@@H](C)CC", "note": "[LL-37, reference compound]", "values": [{"measurement": "Free Hemoglobin, BLOOD, 8 μg/mL", "setting": "erythrocyte membranes [2]; citrate anticoagulated whole blood, peptide conc. 8 μg/mL, 60 min 37 °C, Kahn method, n = 3, control 3.7 ± 1.9", "result": "1.1 ± 0.7", "unit": "mg/dL"}, {"measurement": "Free Hemoglobin, BLOOD, 32 μg/mL", "setting": "erythrocyte membranes [2]; citrate anticoagulated whole blood, peptide conc. 32 μg/mL, 60 min 37 °C, Kahn method, n = 3, control 3.7 ± 1.9", "result": "9.4 ± 13.4", "unit": "mg/dL"}, {"measurement": "Free Hemoglobin, BLOOD, 128 μg/mL", "setting": "erythrocyte membranes [2]; citrate anticoagulated whole blood, peptide conc. 128 μg/mL, 60 min 37 °C, Kahn method, n = 3, control 3.7 ± 1.9", "result": "2.6 ± 3.7", "unit": "mg/dL"}, {"measurement": "Free Hemoglobin, RBC in PBS, 128 μg/mL", "setting": "erythrocyte membranes [3]; blood cells suspended in PBS 10 mM pH 7.4, highest peptide conc., 60 min 37 °C, Kahn method, n = 3, control 8.5 ± 4.7", "result": "68.4 ± 15.0", "unit": "mg/dL"}, {"measurement": "Free Hemoglobin, RBC in PBS, 8 μg/mL", "setting": "erythrocyte membranes [3]; blood cells suspended in PBS 10 mM pH 7.4, peptide conc. 8 μg/mL, 60 min 37 °C, Kahn method, n = 3, control 8.5 ± 4.7", "result": "2.4 ± 3.6", "unit": "mg/dL"}, {"measurement": "Free Hemoglobin, RBC in PBS, 32 μg/mL", "setting": "erythrocyte membranes [3]; blood cells suspended in PBS 10 mM pH 7.4, peptide conc. 32 μg/mL, 60 min 37 °C, Kahn method, n = 3, control 8.5 ± 4.7", "result": "44.8 ± 17.7", "unit": "mg/dL"}, {"measurement": "Plasma clot, Heparin Plasma", "setting": "plasmatic coagulation [8]", "result": "−"}, {"measurement": "Plasma clot, Citrated Plasma", "setting": "plasmatic coagulation [9]", "result": "−"}, {"measurement": "Clotting of citrate plasma, Peptide Concentration 8 μg/mL", "setting": "plasmatic coagulation [4]; [10]", "result": "−"}, {"measurement": "Clotting of citrate plasma, Peptide Concentration 32 μg/mL", "setting": "plasmatic coagulation [4]; [10]", "result": "−"}, {"measurement": "Clotting of citrate plasma, Peptide Concentration 128 μg/mL", "setting": "plasmatic coagulation [4]; [10]", "result": "−"}, {"measurement": "Clotting of citrate plasma, Peptide Concentration 256 μg/mL", "setting": "plasmatic coagulation [4]; [10]", "result": "−"}]}
